Patent EP4745135A1 (Gluetacs Therapeutics (Shanghai) Co., Ltd., priority 2023, dated 2025)

What was measured:
[1] = test system: Human myeloid monocytic leukemia cell (MV-4-11); assay: Tumor cell proliferation inhibition (CellTiter-Meiluncell luminescent cell viability assay); conditions: MV4-11, 96 h; for inhibition at 0.01 µM: read-out: Inhibition Rate at 10 nM (%); for inhibition at 0.5 µM: read-out: Inhibition Rate at 500 nM (%)
[2] = test system: Human multiple myeloma peripheral blood B lymphocyte cell (RPMI-8226); assay: as above; conditions: RPMI-8226, 96 h; for inhibition at 0.01 µM: read-out: Inhibition Rate at 10 nM (%); for inhibition at 0.5 µM: read-out: Inhibition Rate at 500 nM (%)
Procedure: The tumor cells used herein were cultured in a cell culture medium listed in table 2 at 37°C in an incubator with 5% CO2. Prior to experimentation, all cell lines used were correctly identified by STR profiling, and tested negative for mycoplasma contamination using a mycoplasma detection kit through routine screenings.
The IC50 values of the compounds of the present disclosure (including the compounds in Table 1 and Examples) were determined using the CellTiter-Meiluncell Luminescent Cell Viability Assay Kit from Dalian Meilun Biotech Co., Ltd. The detailed procedure is as follows: Tumor cells were seeded in 96-well cell culture plates at the densities specified in Table 3. On the following day, the test compounds of the present disclosure were subjected to serial dilution. The dilution can be performed according to one of the following two methods: • (1) The first dilution method: The test compounds of the present disclosure (including the compounds in Table 1 and Examples) were subjected to 5-fold serial dilutions starting from a highest concentration of 2000 µM, resulting in a total of 9 concentrations from high to low (2000, 400, 80, 16, 3.2, 0.64, 0.128, 0.0256, 0.00512 µM). Subsequently, 0.5 µL of the test compound dilution was transferred into the 96-well plate containing the cells, with each well containing 100 µL of cell culture medium. […] Into the 96-well plate, the diluted test compounds and corresponding detection reagents were added, resulting in final test compound concentrations of 500 nM and 10 nM, respectively. The experimental procedure is described below using the diluted 2 µM test compound as an example.
0.5 µL of the aforementioned diluted compound of the present disclosure (including the compounds in Table 1 and Examples) was added to the seeded cells in 100 µL of medium, yielding a final test compound concentration of 10 nM. After the cells were treated with the compounds of the present disclosure for a specified period, the cell viability assay reagent was added to the culture medium according to the kit's instructions to determine cell viability. […] All controls were treated using the same procedure as the compounds of the present disclosure. The growth inhibition curves for the compounds of the present disclosure were plotted using Prism GraphPad software, and the IC50 values were calculated therefrom.

[3] = target: T1, human Cereblon WT GST-tagged protein (Homo sapiens, UniProt Q96SW2); assay: CRBN-binding affinity, HTRF (CEREBLON BINDING kit); conditions: for inhibition at 0.5 µM: read-out: Inhibition Rate at 0.5 µM (%); for inhibition at 2 µM: read-out: Inhibition Rate at 2 µM (%)
T1 construct: purchased CISBIO 64BDCRBNPEH
T1 sequence (Q96SW2 whole entry): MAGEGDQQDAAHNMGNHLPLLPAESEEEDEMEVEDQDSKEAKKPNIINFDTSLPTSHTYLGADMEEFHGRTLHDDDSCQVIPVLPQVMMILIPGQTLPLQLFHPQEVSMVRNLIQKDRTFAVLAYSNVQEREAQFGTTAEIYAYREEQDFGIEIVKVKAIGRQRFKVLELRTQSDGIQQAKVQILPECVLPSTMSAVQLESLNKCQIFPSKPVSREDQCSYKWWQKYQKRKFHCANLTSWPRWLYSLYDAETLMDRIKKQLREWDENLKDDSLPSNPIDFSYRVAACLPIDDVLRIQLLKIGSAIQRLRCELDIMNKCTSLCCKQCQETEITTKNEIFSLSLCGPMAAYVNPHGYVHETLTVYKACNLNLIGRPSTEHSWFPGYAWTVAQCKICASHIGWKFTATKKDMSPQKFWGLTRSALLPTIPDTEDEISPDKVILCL

[4] = test system: GSPT1; assay: Western blot, degradation of substrate protein in hPBMCs; assay type: cell-based, Human
[5] = target: T2, CK1α (Homo sapiens, UniProt P48729+Q96SW2); assay: as above; assay type: cell-based
T2 construct: effects of the compounds of the present disclosure on the expression of target proteins in cells; endogenous in cells; host or cells: human PBMCs (Milecell Biotechnologies)
T2 sequence (P48729 whole entry): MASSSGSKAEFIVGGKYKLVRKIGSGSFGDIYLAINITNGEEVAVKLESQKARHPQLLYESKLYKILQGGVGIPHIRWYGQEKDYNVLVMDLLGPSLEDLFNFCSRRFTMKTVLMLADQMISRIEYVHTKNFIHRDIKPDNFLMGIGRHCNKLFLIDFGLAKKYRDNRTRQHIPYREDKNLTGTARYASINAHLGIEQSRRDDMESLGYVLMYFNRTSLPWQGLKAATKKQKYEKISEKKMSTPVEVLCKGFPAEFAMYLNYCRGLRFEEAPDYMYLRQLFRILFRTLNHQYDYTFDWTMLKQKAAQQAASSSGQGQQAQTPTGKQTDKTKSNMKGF
T2 sequence (Q96SW2 whole entry): as the sequence (Q96SW2 whole entry) above
T2 sequence (Q16531 whole entry partner): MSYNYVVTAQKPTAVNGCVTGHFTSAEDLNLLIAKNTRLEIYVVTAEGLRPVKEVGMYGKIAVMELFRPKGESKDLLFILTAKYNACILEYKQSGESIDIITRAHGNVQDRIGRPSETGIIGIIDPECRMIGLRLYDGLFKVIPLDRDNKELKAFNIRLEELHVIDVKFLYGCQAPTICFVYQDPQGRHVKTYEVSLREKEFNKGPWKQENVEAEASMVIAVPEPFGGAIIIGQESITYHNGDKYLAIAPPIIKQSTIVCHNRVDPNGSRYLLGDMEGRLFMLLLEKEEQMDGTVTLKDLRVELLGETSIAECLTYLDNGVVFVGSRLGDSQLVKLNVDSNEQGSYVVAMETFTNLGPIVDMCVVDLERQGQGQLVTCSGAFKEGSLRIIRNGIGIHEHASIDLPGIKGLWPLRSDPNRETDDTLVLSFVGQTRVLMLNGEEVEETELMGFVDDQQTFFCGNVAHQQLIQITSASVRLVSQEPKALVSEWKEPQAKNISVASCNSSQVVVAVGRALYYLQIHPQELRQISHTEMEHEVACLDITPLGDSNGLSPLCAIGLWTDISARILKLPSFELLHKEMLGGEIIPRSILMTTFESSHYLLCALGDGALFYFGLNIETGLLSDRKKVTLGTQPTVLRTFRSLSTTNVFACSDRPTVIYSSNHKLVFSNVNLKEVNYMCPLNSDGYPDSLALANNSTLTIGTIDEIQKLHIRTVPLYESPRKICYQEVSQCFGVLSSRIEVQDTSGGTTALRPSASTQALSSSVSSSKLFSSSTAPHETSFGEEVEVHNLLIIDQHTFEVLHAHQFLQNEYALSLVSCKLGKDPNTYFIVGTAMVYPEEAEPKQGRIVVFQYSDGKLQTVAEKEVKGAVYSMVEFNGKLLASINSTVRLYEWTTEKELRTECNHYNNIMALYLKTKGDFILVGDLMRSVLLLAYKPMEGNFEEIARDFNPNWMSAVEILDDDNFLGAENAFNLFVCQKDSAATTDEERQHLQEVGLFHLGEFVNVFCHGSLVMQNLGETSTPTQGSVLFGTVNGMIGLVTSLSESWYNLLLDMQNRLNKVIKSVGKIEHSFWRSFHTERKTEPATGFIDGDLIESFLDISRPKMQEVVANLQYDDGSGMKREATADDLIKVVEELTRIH

[6] = target: T3, IKZF2 (Homo sapiens, UniProt Q96SW2+Q9UKS7); assay: as above; assay type: cell-based
T3 construct: effects of the compounds of the present disclosure on the expression of target proteins in cells; endogenous in cells; host or cells: human PBMCs (Milecell Biotechnologies)
T3 sequence (Q9UKS7 whole entry): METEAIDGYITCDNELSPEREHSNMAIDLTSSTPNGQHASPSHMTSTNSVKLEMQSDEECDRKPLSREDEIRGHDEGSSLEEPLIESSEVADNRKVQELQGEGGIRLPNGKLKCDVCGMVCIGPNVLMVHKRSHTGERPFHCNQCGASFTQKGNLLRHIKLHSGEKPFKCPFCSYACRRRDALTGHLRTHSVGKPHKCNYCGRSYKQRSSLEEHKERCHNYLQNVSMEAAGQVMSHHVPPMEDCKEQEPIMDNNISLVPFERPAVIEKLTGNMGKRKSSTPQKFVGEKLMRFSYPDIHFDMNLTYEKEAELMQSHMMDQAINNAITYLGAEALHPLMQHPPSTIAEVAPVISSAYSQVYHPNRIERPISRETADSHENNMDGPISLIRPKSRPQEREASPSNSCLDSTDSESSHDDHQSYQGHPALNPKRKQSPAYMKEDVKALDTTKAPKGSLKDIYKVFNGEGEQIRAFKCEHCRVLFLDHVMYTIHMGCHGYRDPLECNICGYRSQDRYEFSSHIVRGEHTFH
T3 sequence (Q96SW2 whole entry): as the sequence (Q96SW2 whole entry) above
T3 sequence (Q16531 whole entry partner): as the sequence (Q16531 whole entry partner) above

[7] = target: T4, IKZF3 (Homo sapiens, UniProt Q96SW2+Q9UKT9); assay: as above; assay type: cell-based
T4 construct: effects of the compounds of the present disclosure on the expression of target proteins in cells; endogenous in cells; host or cells: human PBMCs (Milecell Biotechnologies)
T4 sequence (Q9UKT9 whole entry): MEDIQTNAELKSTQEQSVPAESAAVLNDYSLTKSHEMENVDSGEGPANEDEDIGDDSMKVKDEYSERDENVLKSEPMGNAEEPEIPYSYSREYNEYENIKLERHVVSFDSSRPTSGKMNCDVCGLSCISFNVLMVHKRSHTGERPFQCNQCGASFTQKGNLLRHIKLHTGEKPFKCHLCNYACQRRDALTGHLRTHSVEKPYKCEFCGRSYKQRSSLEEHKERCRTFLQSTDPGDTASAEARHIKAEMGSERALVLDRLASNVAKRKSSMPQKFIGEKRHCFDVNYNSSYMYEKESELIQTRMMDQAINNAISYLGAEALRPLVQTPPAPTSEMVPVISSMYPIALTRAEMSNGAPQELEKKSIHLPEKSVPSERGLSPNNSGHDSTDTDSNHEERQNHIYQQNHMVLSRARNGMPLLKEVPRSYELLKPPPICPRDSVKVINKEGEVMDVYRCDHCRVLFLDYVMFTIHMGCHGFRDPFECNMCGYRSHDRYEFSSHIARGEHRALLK
T4 sequence (Q96SW2 whole entry): as the sequence (Q96SW2 whole entry) above
T4 sequence (Q16531 whole entry partner): as the sequence (Q16531 whole entry partner) above

[8] = target: T5, IKZF1 (Homo sapiens, UniProt Q13422+Q96SW2); assay: as above; assay type: cell-based
T5 construct: effects of the compounds of the present disclosure on the expression of target proteins in cells; endogenous in cells; host or cells: human PBMCs (Milecell Biotechnologies)
T5 sequence (Q13422 whole entry): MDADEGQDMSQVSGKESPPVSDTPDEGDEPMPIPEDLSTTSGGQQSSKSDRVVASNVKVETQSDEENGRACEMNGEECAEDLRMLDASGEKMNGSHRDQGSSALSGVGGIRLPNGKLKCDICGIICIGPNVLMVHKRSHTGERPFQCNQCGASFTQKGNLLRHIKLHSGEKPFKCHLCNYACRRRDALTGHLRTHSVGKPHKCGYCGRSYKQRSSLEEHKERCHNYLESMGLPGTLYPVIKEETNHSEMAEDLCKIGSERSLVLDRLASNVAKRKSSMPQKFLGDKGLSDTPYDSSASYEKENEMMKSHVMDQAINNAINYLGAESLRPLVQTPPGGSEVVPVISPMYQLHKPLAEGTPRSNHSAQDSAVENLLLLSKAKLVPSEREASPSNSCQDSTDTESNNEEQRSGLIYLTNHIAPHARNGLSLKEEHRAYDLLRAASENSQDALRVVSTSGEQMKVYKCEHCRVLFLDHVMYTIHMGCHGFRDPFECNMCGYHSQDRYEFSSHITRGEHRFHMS
T5 sequence (Q96SW2 whole entry): as the sequence (Q96SW2 whole entry) above
T5 sequence (Q16531 whole entry partner): as the sequence (Q16531 whole entry partner) above

[9] = target: T6, WEE1 (Homo sapiens, UniProt P30291+Q96SW2); assay: as above; assay type: cell-based
T6 construct: effects of the compounds of the present disclosure on the expression of target proteins in cells; endogenous in cells; host or cells: human PBMCs (Milecell Biotechnologies)
T6 sequence (P30291 whole entry): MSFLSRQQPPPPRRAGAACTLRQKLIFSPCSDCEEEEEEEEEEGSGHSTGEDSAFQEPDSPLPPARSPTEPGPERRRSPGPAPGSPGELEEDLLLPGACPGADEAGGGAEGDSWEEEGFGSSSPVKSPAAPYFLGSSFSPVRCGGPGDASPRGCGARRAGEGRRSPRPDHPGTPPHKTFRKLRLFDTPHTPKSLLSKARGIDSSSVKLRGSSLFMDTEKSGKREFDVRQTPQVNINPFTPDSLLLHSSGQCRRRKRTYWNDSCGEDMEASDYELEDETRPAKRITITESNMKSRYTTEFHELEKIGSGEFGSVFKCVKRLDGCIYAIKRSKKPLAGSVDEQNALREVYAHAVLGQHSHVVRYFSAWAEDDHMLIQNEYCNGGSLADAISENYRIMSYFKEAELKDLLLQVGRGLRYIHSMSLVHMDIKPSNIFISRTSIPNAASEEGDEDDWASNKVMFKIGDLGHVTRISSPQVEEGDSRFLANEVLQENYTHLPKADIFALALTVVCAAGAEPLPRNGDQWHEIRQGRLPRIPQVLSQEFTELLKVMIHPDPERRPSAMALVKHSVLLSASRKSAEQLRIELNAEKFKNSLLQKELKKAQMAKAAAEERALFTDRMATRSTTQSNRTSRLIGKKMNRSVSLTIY
T6 sequence (Q96SW2 whole entry): as the sequence (Q96SW2 whole entry) above
T6 sequence (Q16531 whole entry partner): as the sequence (Q16531 whole entry partner) above

[10] = test system: Human multiple myeloma cell (MM.1S); assay: Tumor cell proliferation inhibition (CellTiter-Meiluncell luminescent cell viability assay); conditions: for inhibition at 0.01 µM / inhibition at 0.5 µM: Homo sapiens, MM1.S, 96 h; for inhibition at 0.01 µM: read-out: Inhibition Rate at 10 nM (%); for inhibition at 0.5 µM: read-out: Inhibition Rate at 500 nM (%)
[11] = test system: Human acute T lymphocytic leukemia cell (Molt4); assay: as above; conditions: MOLT-4, 96 h
[12] = 24 hours treatment, compounds at 50 nM and 500 nM (concentration behind the class not stated)
[13] = Western blot, 24 hours of compound treatment, compounds tested at 50 nM and 500 nM (concentration for the table not stated)

Structure (SMILES) | inhibition at 0.5 µM [3] [%] | inhibition at 2 µM [3] [%] | inhibition at 0.01 µM [1] [%] | inhibition at 0.5 µM [1] [%] | inhibition at 0.01 µM [2] [%] | inhibition at 0.5 µM [2] [%] | inhibition at 0.01 µM [10] [%] | inhibition at 0.5 µM [10] [%] | GSPT1 substrate protein remaining % [4, 13] | CK1α substrate protein remaining % [5, 13] | IKZF2 substrate protein remaining % [6, 13] | IKZF3 substrate protein remaining % [7, 13] | IKZF 1 substrate protein remaining % [8, 13] | Wee1 substrate protein remaining % [9, 13] | further results
N#Cc1ccc(N2CCN(Cc3ccc(COc4cccc5c4CN([C@H]4CCC(=O)NC4=O)C5=S)cc3)CC2)c(F)c1 [GT-05957, (S)-4-(4-(4-(((2-(2,6-dioxopiperidin-3-yl)-1-thioxoisoindolin-4-yl)oxy)methyl)benzyl)piperazin-1-yl)-3-fluorobenzonitrile] |  |  | 25 to 30 | 40 to 60 | 50 to 60 | 60 to 70 | 80 to 100 | 80 to 100 |  |  |  |  |  |  | IC50 ([3]; CRBN binding, HTRF, 3 hours at room temperature, read-out: HTRF IC50): 100 to 500 nM; GSPT1 substrate protein remaining % [4, 12]: A (0% ≤ substrate protein remaining % ≤ 80%); CK1α substrate protein remaining % [5, 12]: B (80%< substrate protein remaining %≤ 100%); IKZF2 substrate protein remaining % [6, 12]: A (0% ≤ substrate protein remaining % ≤ 80%); IKZF3 substrate protein remaining % [7, 12]: A (0% ≤ substrate protein remaining % ≤ 80%); IKZF 1 substrate protein remaining % [8, 12]: A (0% ≤ substrate protein remaining % ≤ 80%); Wee1 substrate protein remaining % [9, 12]: B (80%< substrate protein remaining %≤ 100%)
O=C1CCC(N2Cc3c(CN4C[C@@H]5C[C@H]4CN5C(c4ccccc4)c4ccccc4)cccc3C2=S)C(=O)N1 (stereo partly drawn) [GT-08207, 3-(4-(((1 S,4S)-5-benzhydryl-2,5-diazabicyclo[2.2.1]heptan-2-yl)methyl)-1-thioxoisoindolin-2-yl)piperidine-2,6-dione] | 40 to 53 | 60 to 80 |  |  | 50 to 60 | 60 to 70 |  |  | A (0% ≤ substrate protein remaining % ≤ 80%) | B (80%< substrate protein remaining %≤ 100%) | B (80%< substrate protein remaining %≤ 100%) | B (80%< substrate protein remaining %≤ 100%) | A (0% ≤ substrate protein remaining % ≤ 80%) | A (0% ≤ substrate protein remaining % ≤ 80%) | 
O=C1CCC(N2Cc3cc(CN4CCN(c5cccc(Br)c5)CC4)ccc3C2=S)C(=O)N1 (stereo not drawn) [GT-08238, 3-(5-((4-(3-bromophenyl)piperazin-1-yl)methyl)-1-thioxoisoindolin-2-yl)piperidine-2,6-dione] | 53 to 60 | 80 to 100 | 5 to 10 | 80 to 100 | 20 to 30 | 50 to 60 | 70 to 80 | 70 to 80 | A (0% ≤ substrate protein remaining % ≤ 80%) | B (80%< substrate protein remaining %≤ 100%) | B (80%< substrate protein remaining %≤ 100%) | B (80%< substrate protein remaining %≤ 100%) | B (80%< substrate protein remaining %≤ 100%) | B (80%< substrate protein remaining %≤ 100%) | inhibition at 0.01 µM ([11]; read-out: Inhibition Rate at 10 nM (%)): 30 to 40%; inhibition at 0.5 µM ([11]; read-out: Inhibition Rate at 500 nM (%)): 80 to 100%
O=C1CCC(N2Cc3cc(CN4CCN(c5cc(Cl)cc(Cl)c5)CC4)ccc3C2=S)C(=O)N1 (stereo not drawn) [GT-08624, 3-(5-((4-(3,5-dichlorophenyl)piperazin-1-yl)methyl)-1-thioxoisoindolin-2-yl)piperidine-2,6-dione] | 30 to 40 | 80 to 100 | 18 to 25 | 80 to 100 | 10 to 20 | 60 to 70 | 20 to 30 | 80 to 100 | A (0% ≤ substrate protein remaining % ≤ 80%) | B (80%< substrate protein remaining %≤ 100%) | B (80%< substrate protein remaining %≤ 100%) | B (80%< substrate protein remaining %≤ 100%) | B (80%< substrate protein remaining %≤ 100%) | B (80%< substrate protein remaining %≤ 100%) | 

Further lines, with some results ahead:

inhibition at 0.5 µM [3] [%] | inhibition at 2 µM [3] [%] | Structure (SMILES) | inhibition at 0.01 µM [1] [%] | inhibition at 0.5 µM [1] [%] | inhibition at 0.01 µM [2] [%] | inhibition at 0.5 µM [2] [%] | inhibition at 0.01 µM [10] [%] | inhibition at 0.5 µM [10] [%] | GSPT1 substrate protein remaining % [4, 13] | CK1α substrate protein remaining % [5, 13] | IKZF2 substrate protein remaining % [6, 13] | IKZF3 substrate protein remaining % [7, 13] | IKZF 1 substrate protein remaining % [8, 13] | Wee1 substrate protein remaining % [9, 13] | further results
30 to 40 | 60 to 80 | O=C1CCC(N2Cc3c(CN4CCN(C(c5ccc(F)cc5)c5ccc(F)cc5)CC4)cccc3C2=S)C(=O)N1 (stereo not drawn) [GT-08202, 3-(4-((4-(bis(4-fluorophenyl)methyl)piperazin-1-yl)methyl)-1-thioxoisoindolin-2-yl)piperidine-2,6-dione] | 30 to 40 | 40 to 60 | 20 to 30 | 40 to 50 |  |  | A (0% ≤ substrate protein remaining % ≤ 80%) | B (80%< substrate protein remaining %≤ 100%) | A (0% ≤ substrate protein remaining % ≤ 80%) | A (0% ≤ substrate protein remaining % ≤ 80%) | A (0% ≤ substrate protein remaining % ≤ 80%) | A (0% ≤ substrate protein remaining % ≤ 80%) | 
30 to 40 | 60 to 80 | O=C1CCC(N2Cc3c(CN4CCN(CC5=C(c6ccc(F)cc6)CCCC5)CC4)cccc3C2=S)C(=O)N1 (stereo not drawn) [GT-08293, 3-(4-((4-((4'-fluoro-3,4,5,6-tetrahydro-[1,1'-biphenyl]-2-yl)methyl)piperazin-1-yl)methyl)-1-thioxoisoindolin-2-yl)piperidine-2,6-dione] |  |  | 20 to 30 | 40 to 50 |  |  | B (80%< substrate protein remaining %≤ 100%) | B (80%< substrate protein remaining %≤ 100%) | B (80%< substrate protein remaining %≤ 100%) | B (80%< substrate protein remaining %≤ 100%) | B (80%< substrate protein remaining %≤ 100%) | A (0% ≤ substrate protein remaining % ≤ 80%) | 
30 to 40 | 80 to 100 | O=C1CCC(N2Cc3c(CN4CCN(C(=O)C5=C(c6ccc(F)cc6)CCCC5)CC4)cccc3C2=S)C(=O)N1 (stereo not drawn) [GT-08294, 3-(4-((4-(4'-fluoro-3,4,5,6-tetrahydro-[1,1'-biphenyl]-2-carbonyl)piperazin-1-yl)methyl)-1-thioxoisoindolin-2-yl)piperidine-2,6-dione] | 40 to 60 | 60 to 80 | 20 to 30 | 40 to 50 |  |  | B (80%< substrate protein remaining %≤ 100%) | A (0% ≤ substrate protein remaining % ≤ 80%) | B (80%< substrate protein remaining %≤ 100%) | B (80%< substrate protein remaining %≤ 100%) | B (80%< substrate protein remaining %≤ 100%) | B (80%< substrate protein remaining %≤ 100%) | 
40 to 53 | 80 to 100 | O=C1CCC(N2Cc3c(CN4CCN(c5cccc6sccc56)CC4)cccc3C2=S)C(=O)N1 (stereo not drawn) [GT-08364, 3-(4-((4-(benzo[b]thiophen-4-yl)piperazin-1-yl)methyl)-1-thioxoisoindolin-2-yl)piperidine-2,6-dione] |  |  | 20 to 30 | 40 to 50 | 40 to 50 |  | A (0% ≤ substrate protein remaining % ≤ 80%) | B (80%< substrate protein remaining %≤ 100%) | B (80%< substrate protein remaining %≤ 100%) | B (80%< substrate protein remaining %≤ 100%) | B (80%< substrate protein remaining %≤ 100%) | A (0% ≤ substrate protein remaining % ≤ 80%) | Inhibition Rate at 500 nM (%) ([10]; MM.1S, 500 nM, 96 hours): la8
